According to patent US9636418B2 (priority 2013, dated 2017):

Assays:
Assay in all cases: cell-based
hNav1.7 = hNav1.7 (Homo sapiens, UniProt Q15858); type: cell-based; conditions: PatchXpress, tonic block; read-out: PX hNav1.7 Tonic IC50
hNav1.4 = hNav1.4 (Homo sapiens, UniProt P35499); conditions: PatchXpress, tonic block; read-out: PX hNav1.4 Tonic IC50
hNav1.5 = hNav1.5 (Homo sapiens, UniProt Q14524); conditions: PatchXpress, tonic block; read-out: PX hNav1.5 Tonic IC50
Chain of hNav1.5 (Q14524 whole entry): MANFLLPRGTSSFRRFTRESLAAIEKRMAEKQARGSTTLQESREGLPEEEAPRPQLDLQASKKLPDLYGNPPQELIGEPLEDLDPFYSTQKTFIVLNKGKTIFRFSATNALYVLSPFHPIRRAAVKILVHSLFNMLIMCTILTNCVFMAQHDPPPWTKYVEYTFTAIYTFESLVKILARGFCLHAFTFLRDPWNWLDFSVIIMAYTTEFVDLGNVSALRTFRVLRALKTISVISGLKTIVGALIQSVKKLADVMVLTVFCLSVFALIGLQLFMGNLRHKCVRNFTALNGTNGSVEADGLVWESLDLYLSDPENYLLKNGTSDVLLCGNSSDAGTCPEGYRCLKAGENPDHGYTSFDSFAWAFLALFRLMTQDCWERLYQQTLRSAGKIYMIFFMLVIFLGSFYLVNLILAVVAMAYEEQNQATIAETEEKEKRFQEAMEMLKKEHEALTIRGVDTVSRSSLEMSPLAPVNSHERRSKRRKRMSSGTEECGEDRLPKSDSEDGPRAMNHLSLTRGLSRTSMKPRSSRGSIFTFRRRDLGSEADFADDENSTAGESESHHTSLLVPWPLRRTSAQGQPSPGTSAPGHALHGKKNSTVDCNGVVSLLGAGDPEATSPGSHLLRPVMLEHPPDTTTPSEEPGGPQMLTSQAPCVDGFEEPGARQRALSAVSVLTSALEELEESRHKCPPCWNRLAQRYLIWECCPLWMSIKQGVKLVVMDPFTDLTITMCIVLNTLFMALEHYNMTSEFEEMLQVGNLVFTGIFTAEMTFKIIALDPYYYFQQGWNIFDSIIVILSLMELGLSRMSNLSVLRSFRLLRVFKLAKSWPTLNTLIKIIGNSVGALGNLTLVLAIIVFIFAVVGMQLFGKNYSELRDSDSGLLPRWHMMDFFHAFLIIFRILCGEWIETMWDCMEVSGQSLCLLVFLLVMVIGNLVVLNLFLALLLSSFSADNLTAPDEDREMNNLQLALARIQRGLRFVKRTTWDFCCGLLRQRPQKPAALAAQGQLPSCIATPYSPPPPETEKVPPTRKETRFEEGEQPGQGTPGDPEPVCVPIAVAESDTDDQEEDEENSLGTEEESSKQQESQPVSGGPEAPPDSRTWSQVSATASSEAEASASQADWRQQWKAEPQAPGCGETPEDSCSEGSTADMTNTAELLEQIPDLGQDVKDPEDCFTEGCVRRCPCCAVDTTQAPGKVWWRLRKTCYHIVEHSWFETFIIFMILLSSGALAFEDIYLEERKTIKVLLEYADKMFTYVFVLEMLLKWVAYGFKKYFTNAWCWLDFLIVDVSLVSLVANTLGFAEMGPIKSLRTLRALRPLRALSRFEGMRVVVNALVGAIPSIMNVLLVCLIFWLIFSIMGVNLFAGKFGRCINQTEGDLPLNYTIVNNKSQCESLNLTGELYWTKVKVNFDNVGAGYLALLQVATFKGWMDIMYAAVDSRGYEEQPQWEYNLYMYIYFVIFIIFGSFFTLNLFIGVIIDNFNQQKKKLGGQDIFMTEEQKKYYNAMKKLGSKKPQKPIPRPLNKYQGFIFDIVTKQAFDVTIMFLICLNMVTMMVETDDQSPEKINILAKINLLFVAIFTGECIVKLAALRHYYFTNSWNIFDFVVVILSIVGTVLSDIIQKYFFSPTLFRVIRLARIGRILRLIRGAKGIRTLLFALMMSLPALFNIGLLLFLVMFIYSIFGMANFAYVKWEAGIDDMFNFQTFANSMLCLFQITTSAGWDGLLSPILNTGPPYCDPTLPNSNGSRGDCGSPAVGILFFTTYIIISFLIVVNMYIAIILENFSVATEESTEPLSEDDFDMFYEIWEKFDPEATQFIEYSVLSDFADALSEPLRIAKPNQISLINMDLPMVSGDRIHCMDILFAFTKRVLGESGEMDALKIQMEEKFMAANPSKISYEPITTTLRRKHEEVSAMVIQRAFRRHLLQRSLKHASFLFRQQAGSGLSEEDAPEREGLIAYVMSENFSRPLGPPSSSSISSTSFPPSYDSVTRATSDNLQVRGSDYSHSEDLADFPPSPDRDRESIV

Chain of hNav1.4 (P35499 whole entry): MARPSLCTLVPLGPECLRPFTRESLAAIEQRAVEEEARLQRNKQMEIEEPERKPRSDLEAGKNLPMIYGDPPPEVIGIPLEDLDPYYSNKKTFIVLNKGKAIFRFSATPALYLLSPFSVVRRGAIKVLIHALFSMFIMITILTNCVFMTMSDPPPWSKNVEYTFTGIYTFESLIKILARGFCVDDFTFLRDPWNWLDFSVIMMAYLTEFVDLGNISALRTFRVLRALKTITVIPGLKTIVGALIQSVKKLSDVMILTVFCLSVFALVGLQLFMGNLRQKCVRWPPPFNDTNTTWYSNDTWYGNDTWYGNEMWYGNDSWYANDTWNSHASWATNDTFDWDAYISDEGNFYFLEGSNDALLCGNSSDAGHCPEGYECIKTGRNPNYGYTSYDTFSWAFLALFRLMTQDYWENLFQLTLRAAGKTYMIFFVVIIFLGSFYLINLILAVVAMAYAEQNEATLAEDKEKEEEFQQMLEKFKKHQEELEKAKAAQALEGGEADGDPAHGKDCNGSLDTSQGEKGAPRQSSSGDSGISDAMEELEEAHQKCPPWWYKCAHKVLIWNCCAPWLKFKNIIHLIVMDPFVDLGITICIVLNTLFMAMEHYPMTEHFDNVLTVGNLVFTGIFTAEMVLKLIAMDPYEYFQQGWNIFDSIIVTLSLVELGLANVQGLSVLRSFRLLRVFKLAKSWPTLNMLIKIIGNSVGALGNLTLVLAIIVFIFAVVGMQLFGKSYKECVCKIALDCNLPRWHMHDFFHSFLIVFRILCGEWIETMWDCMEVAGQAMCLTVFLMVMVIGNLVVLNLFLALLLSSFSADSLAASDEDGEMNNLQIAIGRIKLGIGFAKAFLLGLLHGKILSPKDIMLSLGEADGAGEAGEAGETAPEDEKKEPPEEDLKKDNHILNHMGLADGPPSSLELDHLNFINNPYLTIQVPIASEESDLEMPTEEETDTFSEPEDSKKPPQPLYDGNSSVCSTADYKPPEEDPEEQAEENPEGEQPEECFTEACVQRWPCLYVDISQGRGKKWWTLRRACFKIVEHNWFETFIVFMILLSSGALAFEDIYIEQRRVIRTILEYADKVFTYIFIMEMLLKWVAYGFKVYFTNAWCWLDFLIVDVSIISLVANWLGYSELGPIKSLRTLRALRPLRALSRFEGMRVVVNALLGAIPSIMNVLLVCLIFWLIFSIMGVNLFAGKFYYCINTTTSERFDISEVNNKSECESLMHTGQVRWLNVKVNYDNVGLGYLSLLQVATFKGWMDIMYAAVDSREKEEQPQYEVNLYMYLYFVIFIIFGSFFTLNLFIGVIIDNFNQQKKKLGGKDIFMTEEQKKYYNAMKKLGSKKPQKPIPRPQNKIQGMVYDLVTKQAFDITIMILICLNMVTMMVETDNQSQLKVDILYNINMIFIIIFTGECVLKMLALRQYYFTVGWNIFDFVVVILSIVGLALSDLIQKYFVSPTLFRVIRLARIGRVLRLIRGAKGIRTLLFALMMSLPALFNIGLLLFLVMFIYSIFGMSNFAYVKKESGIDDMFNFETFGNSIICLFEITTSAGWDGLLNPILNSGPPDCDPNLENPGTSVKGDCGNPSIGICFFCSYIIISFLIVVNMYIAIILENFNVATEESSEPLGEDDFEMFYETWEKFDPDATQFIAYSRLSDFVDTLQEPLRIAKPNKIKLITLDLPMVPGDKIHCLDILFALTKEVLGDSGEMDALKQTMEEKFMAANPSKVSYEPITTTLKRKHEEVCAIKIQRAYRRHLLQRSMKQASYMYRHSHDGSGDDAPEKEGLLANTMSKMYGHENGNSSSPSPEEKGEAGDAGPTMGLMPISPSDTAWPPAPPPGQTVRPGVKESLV

Row | SMILES | IC50 (hNav1.7) [nM] | IC50 (hNav1.4) [nM] | IC50 (hNav1.5) [nM]
1 | C#CC[C@H](N)C(=O)N[C@@H](Cc1ccc(O)cc1)C(=O)N[C@H]1CSSC[C@@H]2NC(=O)[C@@H]3CSSC[C@@H](C(=O)N[C@@H](CCCNC(=N)N)C(=O)N[C@@H](CCCCN)C(=O)N[C@@H](CCC(=O)O)C(=O)N[C@H](C(N)=O)[C@@H](C)CC)NC(=O)[C@H](Cc4c[nH]c5ccccc45)NC(=O)[C@H](CC(C)C)NC(=O)[C@H](CCCCN)NC(=O)[C@H](CSSC[C@H](NC(=O)[C@H]([C@@H](C)O)NC(=O)[C@H](Cc4c[nH]c5ccccc45)NC(=O)[C@H](CCCC)NC(=O)[C@H](Cc4c[nH]c5ccccc45)NC(=O)[C@H](CCCCN)NC(=O)[C@H](CCC(N)=O)NC1=O)C(=O)N[C@@H](CC(=O)O)C(=O)N[C@@H](CO)C(=O)N[C@@H](CCCCN)C(=O)N[C@@H](CCCNC(=N)N)C(=O)N[C@@H](C)C(=O)N3)NC(=O)[C@H](CCCNC(=N)N)NC(=O)[C@H](CC(C)C)NC(=O)CNC(=O)[C@H](CCC(=O)O)NC2=O [compound 328] | 0.515 | 130 | 3020
2 | C#CC[C@H](N)C(=O)N[C@@H](Cc1ccc(O)cc1)C(=O)N[C@H]1CSSC[C@@H]2NC(=O)[C@@H]3CSSC[C@@H](C(=O)N[C@@H](CCCNC(=N)N)C(=O)N[C@@H](CCCCN)C(=O)N[C@H](C(=O)N[C@H](C(N)=O)[C@@H](C)CC)[C@@H](C)CC)NC(=O)[C@H](Cc4c[nH]c5ccccc45)NC(=O)[C@H](CC(C)C)NC(=O)[C@H](CCCCN)NC(=O)[C@H](CSSC[C@H](NC(=O)[C@H]([C@@H](C)O)NC(=O)[C@H](Cc4c[nH]c5ccccc45)NC(=O)[C@H](CCCC)NC(=O)[C@H](Cc4c[nH]c5ccccc45)NC(=O)[C@H](CCCCN)NC(=O)[C@H](CCC(N)=O)NC1=O)C(=O)N[C@@H](CC(=O)O)C(=O)N[C@@H](CO)C(=O)N[C@@H](CCCCN)C(=O)N[C@@H](CCCNC(=N)N)C(=O)N[C@@H](C)C(=O)N3)NC(=O)[C@H](CCC(=O)O)NC(=O)[C@H](CC(C)C)NC(=O)CNC(=O)[C@H](CCC(=O)O)NC2=O [compound 297] | 1.87 | 804 | 1200
3 | C#CC[C@H](N)C(=O)N[C@H]1CSSC[C@@H]2NC(=O)[C@@H]3CSSC[C@@H](C(=O)N[C@@H](CCCNC(=N)N)C(=O)N[C@@H](CCCCN)C(=O)N[C@@H](CCC(=O)O)C(=O)N[C@H](C(N)=O)[C@@H](C)CC)NC(=O)[C@H](Cc4c[nH]c5ccccc45)NC(=O)[C@H](CC(C)C)NC(=O)[C@H](CCCCN)NC(=O)[C@H](CSSC[C@H](NC(=O)[C@H]([C@@H](C)O)NC(=O)[C@H](Cc4c[nH]c5ccccc45)NC(=O)[C@H](CCCC)NC(=O)[C@H](Cc4c[nH]c5ccccc45)NC(=O)[C@H](CCCCN)NC(=O)[C@H](CCC(N)=O)NC1=O)C(=O)N[C@@H](CC(=O)O)C(=O)N[C@@H](CO)C(=O)N[C@@H](CCCCN)C(=O)N[C@@H](CCCNC(=N)N)C(=O)N[C@@H](C)C(=O)N3)NC(=O)[C@H](CCCNC(=N)N)NC(=O)[C@H](CC(C)C)NC(=O)CNC(=O)[C@H](CCC(=O)O)NC2=O [compound 329] | 0.269 | 149 | 4620
4 | C#CC[C@H](N)C(=O)NCCCC[C@@H]1NC(=O)[C@H](CCCNC(=N)N)NC(=O)[C@H](CCCCN)NC(=O)[C@H](CO)NC(=O)[C@H](CC(=O)O)NC(=O)[C@@H]2CSSC[C@@H]3NC(=O)[C@H](CCCNC(=N)N)NC(=O)[C@H](CC(C)C)NC(=O)CNC(=O)[C@H](CCC(=O)O)NC(=O)[C@H](CSSC[C@H](NC(=O)[C@H](Cc4ccc(O)cc4)NC(=O)[C@@H](N)CC#N)C(=O)N[C@@H](CCC(N)=O)C(=O)N[C@@H](CCCCN)C(=O)N[C@@H](Cc4c[nH]c5ccccc45)C(=O)N[C@@H](CC(C)C)C(=O)N[C@@H](Cc4c[nH]c5ccccc45)C(=O)N[C@@H]([C@@H](C)O)C(=O)N2)NC(=O)[C@H](CSSC[C@@H](C(=O)N[C@@H](CCCNC(=N)N)C(=O)N[C@@H](CCCCN)C(=O)N[C@@H](CCC(=O)O)C(=O)N[C@H](C(N)=O)[C@@H](C)CC)NC(=O)[C@H](Cc2c[nH]c4ccccc24)NC(=O)[C@H](CC(C)C)NC(=O)[C@H](CCCCN)NC3=O)NC1=O [compound 449] | 1.5 | 166 | 1550
